According to patent publication US5068253A, “Treatment of a microbial infection with drugs containing para-acetamidobenzoic acid” (priority 1990, dated 1991):
Values joined by “and” are separate entries in the source; they are usually repeats but may differ in a detail not shown here. Equal entries are not always repeated. Structures can show the parent of a compound that is named as a salt.

Assays:
P. carinii = assay: Drug inhibition assay: [3H]PABA incorporation into reduced folates by P. carinii organisms; type: cell-based, Pneumocystis carinii; settings: for activity at 10000 µM: drug 1 × 10^-2 M, 0 = total inhibition
Experimental: The following assay, used previously to assess drug activity against P. carinii or T. gondii [Kovacs et al., J. Infectious Diseases 160:312-320 (1989)], was used to test drugs for their ability to adversely affect the metabolism of pneumocystis and toxoplasma.
An animal model of Pneumocystis carinii pneumonia was used to obtain organisms. This model involves treating rats, usually Sprague-Dawley rats, with a corticosteroid, in the present case dexamethasone (1-2 mg/L of drinking water) for 6-10 weeks. Tetracycline is included in the water (1 mg/mL) to prevent bacterial superinfection. Such immunosuppressed rats will develop P. carinii pneumonia spontaneously, and P. carinii organisms are obtained by removing the lungs in a sterile manner, cutting up the lungs and disrupting them with a Stomacher (Tekmar), which makes a suspension of organisms and cells. The P. carinii organisms are then partially purified by Ficoll-Hypaque density gradient centrifugation, washed in phosphate buffered saline (PBS), and used in the following experiment.
For drug inhibition studies, organisms are incubated with drugs at varying concentrations for 2-h in paraaminobenzoic acid-free (PABA-free) and folate-free RPMI before pulsing with [^3 H]PABA.
Organisms are harvested after an 18-24 h pulse and washed twice in phosphate buffered saline (PBS). Folates are extracted as previously described [Allegra et al., J. Biol. Chem. 261:6478-6485 (1986)]. The organism pellet is heated at 100° C. for 1 min in 2% sodium ascorbate, pH 6.0, and 2% 2-mercaptoethanol; after centrifugation, the supernatant is treated with partially purified porcine kidney conjugase for 30 min at 37° C. to convert all folates to monoglutamates. After an additional boiling with sodium ascorbate and 2-mercaptoethanol, the folates are extracted into methanol using a C-18 cartridge (Sep-Pak, Waters Chromatography Division, Milford, Mass.) and concentrated under a stream of nitrogen.
The individual folates are resolved by high-performance liquid chromatography (HPLC) using a C8 μBondapak column (Waters Chromatography) under isocratic conditions; the running buffer is 15% ethanol and 85% Pic A (Waters Chromatography), pH 5.5 Radioactivity is determined by an in-line scintillation counter (Flow 1 Beta, model CR, Radiomatic Instruments, Tampa, Fla.). Unlabeled folates are included in each run as internal controls.
Results are presented as the percentage of total radiolabel incorporated into reduced folates compared with untreated controls.

[1] = target: T1, Dihydropteroate synthase (DHPS) (Pneumocystis carinii, UniProt P29251); assay: Catalytic DHPS assay, crude enzyme preparation from P. carinii; type: biochemical; settings: for inhibition at 1000 µM / inhibition at 100 µM / inhibition at 10 µM / Percent DHPS Inhibition: P. carinii, single runs; for inhibition at 1000 µM / inhibition at 100 µM / inhibition at 10 µM: read-out: Percent DHPS Inhibition
T1 construct: Enzyme preparations were made by resuspending P. carinii or T. gondii organisms in 1 ml PBS, sonicating to disrupt the organisms; endogenous in cells; host or cells: P. carinii organisms partially purified from lungs of dexamethasone-treated rats; supernatant of sonicate used as crude enzyme
T1 sequence (P29251 1-740): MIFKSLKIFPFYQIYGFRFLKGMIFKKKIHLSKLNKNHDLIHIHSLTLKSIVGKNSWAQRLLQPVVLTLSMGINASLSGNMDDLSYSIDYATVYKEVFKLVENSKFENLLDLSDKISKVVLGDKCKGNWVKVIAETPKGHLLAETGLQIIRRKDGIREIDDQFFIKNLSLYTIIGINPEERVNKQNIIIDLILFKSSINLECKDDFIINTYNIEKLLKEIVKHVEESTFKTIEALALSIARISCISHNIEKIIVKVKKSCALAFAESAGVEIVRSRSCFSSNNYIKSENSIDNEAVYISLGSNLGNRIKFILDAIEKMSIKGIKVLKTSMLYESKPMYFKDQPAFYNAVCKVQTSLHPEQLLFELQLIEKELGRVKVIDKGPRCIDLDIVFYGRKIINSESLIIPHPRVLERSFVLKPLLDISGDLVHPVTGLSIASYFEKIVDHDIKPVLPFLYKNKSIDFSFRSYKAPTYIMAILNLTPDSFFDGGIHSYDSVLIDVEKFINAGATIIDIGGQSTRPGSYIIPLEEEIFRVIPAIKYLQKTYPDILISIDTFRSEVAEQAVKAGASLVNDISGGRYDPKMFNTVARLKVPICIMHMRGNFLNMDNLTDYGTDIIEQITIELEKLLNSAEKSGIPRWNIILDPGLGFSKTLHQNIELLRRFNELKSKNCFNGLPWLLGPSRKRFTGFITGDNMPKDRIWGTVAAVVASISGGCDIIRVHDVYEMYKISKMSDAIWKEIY
Experimental: (§1) Dihydropteroate synthase (DHPS) is an enzyme of the de novo folate synthesis pathway which is known to be susceptible to sulfonamides. […] has a structural similarity to PABA (paraamino benzoic acid), one of the substrates of DHPS. To determine whether DHPS is the target for PAcBA, a catalytic DHPS assay as previously described [Allegra et al., J. Clin. Invest. 85:371-379 (1990)] was used.
(§2) Briefly, assay tubes contain 5 mM MgCl2, 5 mM DTT, 10 μM H2 PtCH2 OPP, 1 μM [^3 H]pABA (final sp act, 2 Ci/mmol), and 40 mM Tris/HCl, pH 8.3, in a total reaction volume of 100 μl. Various concentrations of inhibitors are added as needed. Enzyme preparations were made by resuspending P. carinii or T. gondii organisms in 1 ml PBS, sonicating to disrupt the organisms, and pelleting the cellular debris. The supernatant was saved and used as the crude enzyme preparation. Reactions are initiated by the addition of 50 μl of enzyme preparation. After a 30-min incubation at 37° C. the reaction tubes are placed on ice to terminate the reactions, and then spotted onto 3×30-cm strips of 3 MM chromatography paper (Whatman Laboratory Products Inc.). The strips are developed in a descending chromatography tank using an elution buffer of 0.1M KH2 PO4, pH 7.0. The origins containing the labeled products of the reaction are cut from the strips, placed in scintillation vials, and counted in a liquid scintillation counter (Packard Tri-Carb; Packard Instrument Co. Inc., Downers Grove, Ill.) 24 h after the addition of 9.5 ml of counting cocktail (3A70b; Research Products International Corp., Mt. Prospect, Ill.).
(§3) The results of the DHPS inhibition assay carried out on P. carinii (PC) and T. gondii (Toxo) using the indicated composition are shown below in Table II.

[2] = target: T2, Dihydropteroate synthase (DHPS) (Toxoplasma gondii, UniProt A0A7J6K300); assay: Catalytic DHPS assay, crude enzyme preparation from T. gondii; type: biochemical
T2 construct: crude supernatant of sonicated T. gondii RH organisms from mouse peritoneum; bifunctional HPPK-DHPS polypeptide
T2 sequence (A0A7J6K300 1-748): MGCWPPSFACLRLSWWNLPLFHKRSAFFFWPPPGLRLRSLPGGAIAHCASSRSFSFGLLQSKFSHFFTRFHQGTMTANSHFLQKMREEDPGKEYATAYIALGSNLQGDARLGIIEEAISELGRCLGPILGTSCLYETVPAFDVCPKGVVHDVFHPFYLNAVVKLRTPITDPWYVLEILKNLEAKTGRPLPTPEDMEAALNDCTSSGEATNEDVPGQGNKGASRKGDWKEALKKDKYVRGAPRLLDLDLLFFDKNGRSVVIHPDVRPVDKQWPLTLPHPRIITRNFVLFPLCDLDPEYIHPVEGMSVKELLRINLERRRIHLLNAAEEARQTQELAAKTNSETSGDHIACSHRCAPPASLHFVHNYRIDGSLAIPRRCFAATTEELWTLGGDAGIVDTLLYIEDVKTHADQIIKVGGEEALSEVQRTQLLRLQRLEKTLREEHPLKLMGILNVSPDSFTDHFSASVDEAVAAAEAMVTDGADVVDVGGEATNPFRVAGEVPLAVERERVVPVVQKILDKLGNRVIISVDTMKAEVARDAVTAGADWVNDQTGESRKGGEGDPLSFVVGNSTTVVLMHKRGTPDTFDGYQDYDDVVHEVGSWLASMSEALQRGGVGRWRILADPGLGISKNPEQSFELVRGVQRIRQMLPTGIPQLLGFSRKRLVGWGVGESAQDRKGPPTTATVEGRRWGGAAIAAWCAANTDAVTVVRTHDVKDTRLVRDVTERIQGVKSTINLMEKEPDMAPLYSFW
Description: The RH strain of Toxoplasma gondii were used in all experiments. Organisms are passed by intraperitoneal inoculation into Balb/c mice every 3 to 4 days. Organisms were harvested by lavaging the peritoneum of infected animals 3 to 4 days after inoculation. Organisms were resuspended in PBS, cells are removed by differential centrifugation, and organisms were then pelleted and utilized in the studies.
as §1, §2, §3

[3] = Pneumocystis carinii, single test runs, 100 = no inhibition, read-out: Results: % of Control (total radiolabel incorporated into reduced folates)
[4] = Pneumocystis carinii, drug 1 × 10^-4 M, single test runs, 100 = no inhibition, read-out: Results: % of Control (total radiolabel incorporated into reduced folates)
[5] = concentration of each value not resolvable: run has fewer values than the concentrations listed for the drug (1 × 10-2 to 1 × 10^-6 M; PAcBA also 3 × 10^-3 M), values of a run in order of falling concentration
[6] = T. gondii, 1 × 10^-4 M, single runs, read-out: Percent DHPS Inhibition
[7] = T. gondii, 1 × 10^-5 M, single runs, read-out: Percent DHPS Inhibition
[8] = drug 1 × 10^-4 M, single test runs, 100 = no inhibition, 100 µM
[9] = drug 1 × 10^-5 M, single test runs, 100 = no inhibition, 10 µM

Row | Compound | activity at 10000 µM (P. carinii; [3]) | activity at 100 µM (P. carinii; [4]) | Results: % of Control (total radiolabel incorporated into reduced folates) (P. carinii; [5]) | inhibition at 1000 µM ([1]; 1 × 10^-3 M) | inhibition at 100 µM ([1]; 1 × 10^-4 M) | inhibition at 10 µM ([1]; 1 × 10^-5 M) | inhibition at 100 µM [2, 6] | inhibition at 10 µM [2, 7] | Results: % of Control (total radiolabel incorporated into reduced folates) (P. carinii; [8]) | Results: % of Control (total radiolabel incorporated into reduced folates) (P. carinii; [9]) | Percent DHPS Inhibition ([1]; 1 × 10^-3 M) | Percent DHPS Inhibition ([1]; 1 × 10^-4 M) | Percent DHPS Inhibition ([1]; 1 × 10^-5 M) | other results
1 | OC[C@H]1O[C@@H](n2cnc3c(O)ncnc32)[C@H](O)[C@@H]1O [Inosine, inosine, reference compound] | 57.5% | 69.8% | 61.9 % of Control and 57.6 % of Control and 100 % of Control | 100% | 100% | 100% |  |  |  |  |  |  |  | activity at 1000 µM (P. carinii; Pneumocystis carinii, drug 1 × 10^-3 M, single test runs, 100 = no inhibition, read-out: Results: % of Control (total radiolabel incorporated into reduced folates)): 100%
2 | CC(O)CN(C)C (stereo not drawn) [1-dimethylamino-2-propanol, reference compound] |  |  |  | 81.7% | 91.6% | 100% | 93.6% | 100% | 100 % of Control and 71.3 % of Control | 95 % of Control and 65.4 % of Control |  |  |  | 
3 | Isoprinosine [reference compound] |  |  | 100 % of Control |  |  |  |  |  |  |  | 35.6% | 87.4% | 100% | Percent DHPS Inhibition ([2]; T. gondii, 1 × 10^-3 M, single runs): 7.8%; Percent DHPS Inhibition ([2]; T. gondii, 1 × 10^-4 M, single runs): 28.3%; Percent DHPS Inhibition ([2]; T. gondii, 1 × 10^-5 M, single runs): 76.5%; Percent DHPS Inhibition ([2]; T. gondii, 1 × 10^-6 M, single runs): 100%; Inhibition of P. carinii (in words) (P. carinii; no concentration stated): has inhibition
4 | CC(=O)Nc1ccc(C(=O)O)cc1 [PAcBA, p-acetamidobenzoic acid] |  |  |  | 14.3% |  |  | 21.4% | 68.4% |  |  | 16.6% and 22.2% | 37.9% and 52.6% and 62.1% | 70.2% and 100% and 92.2% | Inhibition of DHPS activity in Toxoplasma gondii (in words) [2]: inhibited; inhibition at 1000 µM ([2]; T. gondii, 1 × 10^-3 M, single runs, read-out: Percent DHPS Inhibition): 5.1%; inhibition at 1 µM ([2]; T. gondii, 1 × 10^-6 M, single runs, read-out: Percent DHPS Inhibition): 83.4%; Inhibition of P. carinii (in words) (P. carinii; 1×10^-2 M, 3×10^-3 M, 1×10^-3 M): considerable inhibition; Inhibition of P. carinii (in words) (P. carinii; 1×10^-4 M): some inhibition; Inhibition of DHPS in P. carinii (in words) [1]: inhibition
5 | CC(=O)Nc1ccc(C(=O)O)cc1 [PAcBA as 1-dimethylamino-2-propanol salt, PAcBA salt of 1-dimethylamino-2-propanol] | 0% | 19% |  |  |  |  |  |  | 15 % of Control and 20 % of Control | 82 % of Control and 44 % of Control and 43 % of Control |  |  |  | Results: % of Control (total radiolabel incorporated into reduced folates) (P. carinii; drug 1 × 10^-3 M, single test runs, 100 = no inhibition, 1000 µM): 0 % of Control; Results: % of Control (total radiolabel incorporated into reduced folates) (P. carinii; drug 1 × 10^-6 M, single test runs, 100 = no inhibition, 1 µM): 100 % of Control and 67 % of Control and 74 % of Control; Potency of the salt relative to the free acid PAcBA against P. carinii (P. carinii; salt versus free acid): approximately 10 fold
